The text below walks through data of patent publication US20040191842A1, “Chemopreventive and therapeutic aspects of polyphenolic compositions and assays” (Medical College of Georgia Research Institute, Inc., priority 2002, published 2004).

“And” between values parts separate entries of the source, which are not always exact repeats. Equal values may be shown once. “Also recorded” adds a separate entry of the source. Where only a bound is given, the exact number is not on record here.

Data set [1] relates to OSC2 cells. As to the kind of experiment: Cell growth assay, OSC2 cells. The data set is classed as cell-based, human. The conditions noted are these: 50 μM EGCG, day four. How it is done: Cell growth assay. Cells (2×10^5) were seeded in each T25 culture flask with 5 ml DMEM/F12 medium for 48 hours. The treatments were started with 50 μM EGCG for 24 hours, 48 hours and 96 hours. At each time point, the cell numbers were counted using a hemacytometer with the presence of Trypan blue.

Data set [2] relates to OSC2 cells. As to the kind of experiment: Cell invasion/migration assay (Transwell), OSC2 cells. The data set is classed as cell-based, human. The settings on record: 50 μM EGCG. As to the method:
Cell invasion/migration assay. The invasion/migration assays were conducted using a Transwell apparatus (Costar) with 6.5 mm diameter wells and membranes of 8 μm pore size. The invasiveness at each time point was tested in DMEM/F12 medium immediately following the cell growth assay, by seeding 10^5 cells in each transwell. Cells migrated across the transwell membrane were counted as per microscopic field.

The subject of another data set is caspase 3. Description: Caspase 3 activity assay, MCF7(C) caspase 3+ cells. The data set is classed as cell-based, human. The conditions noted are these: increasing EGCG or 0.2 mg/ml GTPPs, 24 h. How it is done: Caspase 3 activity assay. The Caspase 3 Apoptosis Detection Kit was purchased from Santa Cruz Biotech. Inc. In a 24 well tissue culture plate, 10^5 cells/well of cells in triplicates were plated. […] To each well, 100 μl of 2×reaction buffer was added with […]. Finally, 5 μl of DEVD-AFC substrate was added to each well containing cell lysates. The reaction mixtures were incubated for 1 hour at 37° C. The caspase 3 activity in each well was measured using a fluorescence microplate reader set for 405 nm excitation and 505 nm emission.

Data set [3] has as its system OSC2 cells. As to the kind of experiment: BrdU incorporation assay, OSC2 (OSC-2) cells. Type of data set: cell-based, human. How it is done:
DNA synthesis analysis using BrdU incorporation method. The BrdU cell proliferation kit was purchased from Oncogene Research Products, Boston, Mass. Cells were culture in 96 well plates with 10^4 cells/well. After EGCG and GTPPs treatments, cells were labeled by BrdU, reacted with BrdU antibody and the color reaction was carried out according to the protocol provided by the manufacturer. The coloration was measure by a Thermo MAX microplate reader using wavelengths 450 nm-562 nm.
(§1) DNA synthesis assay. DNA synthesis was analyzed by a BrdU Cell Proliferation Assay Kit (Oncogene Research Products, Boston, Mass.). […] After the treatment, cells were labeled with BrdU for 2 hours at 37° C. and reacted with anti-BrdU antibody. Unbound antibody in each well was removed by rinsing, and horseradish peroxidase-conjugated goat anti-mouse antibody was added to each well. The color reaction was visualized according to the protocol provided by the manufacturer.
(§2) DNA synthesis assay. DNA synthesis was analyzed by a BrdU cell proliferation assay kit (Oncogene Research Products, Boston, Mass.). […] After the treatment, cells were labeled with BrdU for 2 hours at 37° C. and reacted with anti-BrdU antibody. Unbound antibody in each well was removed by rinsing, and horseradish peroxidase-conjugated goat anti-mouse IgG antibody was added to each well. The color reaction to visualize the secondary antibody was carried out according to the protocol provided by the manufacturer.
On the technique in general: Uptake of a labelled nucleoside into DNA is a usual measure of proliferation.

Data set [4] has as its system aged normal human primary epidermal keratinocytes. As to the kind of experiment: MTT assay (SDH activity), aged keratinocytes. The data set is classed as cell-based. As to the method: Culturing normal human epithelial cells. The pooled normal human primary epidermal keratinocytes were purchased from Cambrex (Baltimore, Md.) and sub-cultured in the specific growth media provided by the manufacturer (KGM-2). […] Exponentially growing keratinocytes were treated and harvested in their early passages (2-3 passages).
(Formazan colour is commonly taken as a measure of viable cells.)

In data set [5] the test system is normal human primary epidermal keratinocytes. As to the kind of experiment: BrdU incorporation assay, exponentially growing keratinocytes. Type of data set: cell-based. The conditions noted are these: increasing EGCG or 0.2 mg/ml GTP. An excerpt:
Analysis of DNA synthesis using the BrdU incorporation method. The BrdU cell proliferation kit was purchased from Oncogene Research Products (Boston, Mass.). […] Experiments were repeated three times in triplicate for each experiment.

The test system of a further data set is NS-SV-AC cells. As to the kind of experiment: Intracellular ROS levels (DFDA assay), NS-SV-AC cells. The data set is classed as cell-based, human. The settings on record: EGCG 15-200 μM, 60 minutes. How it is done: Measurement of intracellular ROS levels. The ROS assay measures the accumulation of intracellular ROS levels. The non-fluorescent dye DFDA passively diffuses into cells, where the acetates are cleaved by intracellular esterases. […] Thus, values of the fluorescence in the cell cultures are constantly rising in this assay. […] The intracellular ROS levels were measured by using a fluorescence plate reader (BIO-TEK FL600, Bio-Tek Instruments, Inc., Winooski, Vt.), at an excitation wavelength of 485 nm and an emission wavelength of 530 nm.

Data set [6] concerns OSC-4 cells. Description: MTT assay (SDH activity), OSC-4 cells. Type of data set: cell-based, human. The conditions noted are these: 24 hours.
Experimental: MTT [3-(4,5-dimethylthiazol-2-yl)-2,5-diphenyl tetrazolium bromide] assay. This method directly detects the activity of mitochondrial succinate dehydrogenase (SDH). Changes in SDH activity is a measurement of cell viability when stress is introduced in cell culture through chemical or physical means. Cells (1.5×10^4 cells/well) were seeded in a 96-well microplate and treated with the indicated doses of EGCG for 24 hours. After the treatment, the cells in each well were washed with 200 μl of phosphate-buffered saline (PBS), incubated with 100 μl of 2% MTT in a solution of 0.05 M Tris, 0.5 mM MgCl2, 2.5 mM CoCl2, and 0.25 M disodiumn succinate as substrate (Sigma) at 37° C. for 30 minutes. Cells were fixed in situ by the addition of 100 μl of 4% formalin in 0.2 M Tris (pH 7.7), and after a 5 minute incubation at room temperature liquid was removed and the wells were allowed to dry. Each well was rinsed with 200 μl water and cells were solubilized by the addition of 100 μl of 6.35% 0.1 N NaOH in DMSO. The colored formazan product was measured by a Thermo MAX micro plate reader (Molecular Devices Corp., Sunnyvale, Calif.) at a wavelength of 562 nm. Experiments were repeated three times with triplicate samples for each experiment.
In data set [7] the test system is OSC-4 cells. Description: BrdU incorporation assay, OSC-4 cells. Type of data set: cell-based, human. The conditions noted are these: for DNA synthesis (BrdU assay): 24 hours. As to the method: as §1, §2
For another data set, the system named is p21. Description: Immunoblot of p21 protein in NHEK. The data set is classed as cell-based, human. The settings on record: EGCG 100 μM or higher, beyond 24 hours. As to the method:
To identify additional factors those suppress EGCG -induced apoptosis and facilitate cell differentiation in NHEK, exponentially growing NHEK (Cambrex, Baltimore, Md.) were exposed to 100 μM EGCG for 0, 2, 6 and 24 hours, prior to total RNA isolation using the Qiagen RNeasy mini kit (Valencia, Calif.), which was followed by RT-PCR labeling and hybridization with the Human Apoptosis Macroarray membrane (Sigma-Genosys, The Woodlands, Tex.). Total cell lysates also were collected following a variety of EGCG treatments. The protein levels for caspase 14 and p21 were determined by immuno-blotting using antibodies specific for caspase 14 and p21 (Santa Cruz Biotechnology, Santa Cruz, Calif.).
A general note: In western blotting, separated proteins are transferred to a membrane and probed.

For data set [8] the following is noted: cited from earlier work.

Consider `O=C(O[C@@H]1Cc2c(O)cc(O)cc2O[C@@H]1c1cc(O)c(O)c(O)c1)c1cc(O)c(O)c(O)c1` [EGCG, (−)-epigallocatechin-3-gallate], for which the “cell number compared to controls” value in the data set with OSC2 cells [1] worked out at 50%. The entries for the “cells invading the membrane, of control” value in the data set with OSC2 cells [2] (24 hours) and in the data set on OSC2 cells [2] (96 hours) were “about 30%” and 20%, respectively. Also, the “caspase 3 activation” value in the data set on caspase 3 was “demonstrated activated caspase 3”. Moreover, the “BrdU incorporation, of control levels” value in the data set on OSC2 cells [3] (200 μM EGCG) and in the data set on OSC-4 cells [7] (200 μM EGCG) was “approximately 75%” each time. Moreover, the “reduction of BrdU incorporation” value was “approximately 25%” in the data set on OSC2 cells [3] (200 μM EGCG, 24-hour period) and “approximately 25%” in the data set on OSC-4 cells [7] (200 μM EGCG, 24-hour period). Besides, the BrdU incorporation result is given as “ceased BrdU incorporation” in the data set on OSC2 cells [3] (EGCG concentrations reached 50 μM, or GTPPs) and “slight increase of BrdU incorporation” in data set [5]. In addition, the “SDH activity and BrdU incorporation” value in [4] (EGCG concentrations higher than 100 μM) is “consistently induced both SDH activity and BrdU incorporation”. Further, in [4] (keratinocytes 25 days in culture, 24 h treatment), the “activation of succinate dehydrogenase (SDH), MTT assay” value is listed as “up to 37 fold”. For the same molecule, the “intracellular ROS levels” value with NS-SV-AC cells is given as “inhibit ROS production at background levels; also recorded: reduced the ROS to background levels”. The “mitochondrial SDH activity” value in the data set with OSC-4 cells [6] (50 μM EGCG) is “did not show significant changes”; in the data set with OSC-4 cells [6] (200 μM EGCG), “significantly reduced SDH activity and DNA synthesis”. Moreover, in the data set with OSC-4 cells [6] (200 μM EGCG), the “SDH activity, of untreated control” value is recorded as “less than 75%”. For the same molecule, the “DNA synthesis (BrdU assay)” value with OSC-4 cells [7] (50 μM EGCG) is “did not show significant changes”; in the data set with OSC-4 cells [7] (200 μM EGCG), “significantly reduced SDH activity and DNA synthesis”. In addition, the “p21 protein level, of controls” value with p21 is recorded as “below 50%”. The “EGCG secreted from human saliva” value in data set [8] (after two to three cups of green tea) was ≤ 50 μM and ≤ 22.9 μg/ml. Moreover, the “absorption through the oral mucosa” value in data set [8] (humans) is listed as “rapidly absorbed through the oral mucosa”.
